Assay results published in the NIST ThermoML archive (doi:10.1016/j.fluid.2014.04.002).
Numbers after ± are expanded uncertainties.

Assay: xn = mol fraction of the nth substance listed
Details: 101 kPa, Liquid; for viscosity: Concentric cylinders viscometry; for mass density: Vibrating tube method

CCOC(=O)C(C)O (stereo not drawn) [DL-ethyl lactate] + OCCCO
Details	mass density [kg/m3]	viscosity [mPa·s]
288.15 K, x1 = 0.1001	1056.19 ± 0.95	51.26 ± 0.97
288.15 K, x1 = 0.2001	1055.73 ± 0.95	38.55 ± 0.74
288.15 K, x1 = 0.3	1054.58 ± 0.95	28.06 ± 0.54
288.15 K, x1 = 0.3998	1053.41 ± 0.95	20.15 ± 0.39
288.15 K, x1 = 0.4996	1051.81 ± 0.94	14.63 ± 0.28
288.15 K, x1 = 0.5997	1049.85 ± 0.94	10.55 ± 0.2
288.15 K, x1 = 0.7	1047.67 ± 0.94	7.714 ± 0.15
288.15 K, x1 = 0.8	1045.16 ± 0.93	5.639 ± 0.11
288.15 K, x1 = 0.8997	1042.56 ± 0.93	4.327 ± 0.083
288.15 K, x1 = 1	1039.28 ± 0.92	3.207 ± 0.062
293.15 K, x1 = 0.1001	1052.84 ± 0.95	40.04 ± 0.77
293.15 K, x1 = 0.2001	1052.12 ± 0.94	30.14 ± 0.58
293.15 K, x1 = 0.3	1050.74 ± 0.94	22.16 ± 0.43
293.15 K, x1 = 0.3998	1049.3 ± 0.94	16.06 ± 0.31
293.15 K, x1 = 0.4996	1047.46 ± 0.94	11.78 ± 0.23
293.15 K, x1 = 0.5997	1045.28 ± 0.93	8.579 ± 0.16
293.15 K, x1 = 0.7	1042.88 ± 0.93	6.35 ± 0.12
293.15 K, x1 = 0.8	1040.14 ± 0.92	4.704 ± 0.091
293.15 K, x1 = 0.8997	1037.34 ± 0.91	3.583 ± 0.069
293.15 K, x1 = 1	1033.84 ± 0.91	2.75 ± 0.053
298.15 K, x1 = 0.1001	1049.47 ± 0.94	31.54 ± 0.61
298.15 K, x1 = 0.2001	1048.48 ± 0.94	23.97 ± 0.46
298.15 K, x1 = 0.3	1046.87 ± 0.93	17.76 ± 0.34
298.15 K, x1 = 0.3998	1045.13 ± 0.93	12.92 ± 0.25
298.15 K, x1 = 0.4996	1043.1 ± 0.93	9.585 ± 0.18
298.15 K, x1 = 0.5997	1040.69 ± 0.92	7.071 ± 0.14
298.15 K, x1 = 0.7	1038.07 ± 0.92	5.296 ± 0.1
298.15 K, x1 = 0.8	1035.11 ± 0.91	3.974 ± 0.077
298.15 K, x1 = 0.8997	1032.1 ± 0.9	3.071 ± 0.059
298.15 K, x1 = 1	1028.39 ± 0.9	2.39 ± 0.046
303.15 K, x1 = 0.1001	1046.08 ± 0.93	25.3 ± 0.49
303.15 K, x1 = 0.2001	1044.83 ± 0.93	19.39 ± 0.37
303.15 K, x1 = 0.3	1042.98 ± 0.93	14.35 ± 0.28
303.15 K, x1 = 0.3998	1041.02 ± 0.92	10.58 ± 0.2
303.15 K, x1 = 0.4996	1038.71 ± 0.92	7.942 ± 0.15
303.15 K, x1 = 0.5997	1036.07 ± 0.91	5.912 ± 0.11
303.15 K, x1 = 0.7	1033.23 ± 0.91	4.482 ± 0.086
303.15 K, x1 = 0.8	1030.05 ± 0.9	3.405 ± 0.066
303.15 K, x1 = 0.8997	1026.83 ± 0.89	2.661 ± 0.051
303.15 K, x1 = 1	1022.92 ± 0.88	2.097 ± 0.041
308.15 K, x1 = 0.1001	1042.68 ± 0.93	20.61 ± 0.4
308.15 K, x1 = 0.2001	1041.16 ± 0.92	15.81 ± 0.3
308.15 K, x1 = 0.3	1039.07 ± 0.92	11.84 ± 0.23
308.15 K, x1 = 0.3998	1036.66 ± 0.91	8.791 ± 0.17
308.15 K, x1 = 0.4996	1034.3 ± 0.91	6.65 ± 0.13
308.15 K, x1 = 0.5997	1031.42 ± 0.9	5.009 ± 0.096
308.15 K, x1 = 0.7	1028.37 ± 0.9	3.833 ± 0.074
308.15 K, x1 = 0.8	1024.96 ± 0.89	2.944 ± 0.057
308.15 K, x1 = 0.8997	1021.54 ± 0.88	2.329 ± 0.045
308.15 K, x1 = 1	1017.42 ± 0.87	1.858 ± 0.036
313.15 K, x1 = 0.1001	1039.25 ± 0.92	16.9 ± 0.32
313.15 K, x1 = 0.2001	1037.46 ± 0.91	13.04 ± 0.25
313.15 K, x1 = 0.3	1035.13 ± 0.91	9.826 ± 0.19
313.15 K, x1 = 0.3998	1032.52 ± 0.9	7.365 ± 0.14
313.15 K, x1 = 0.4996	1029.86 ± 0.9	5.624 ± 0.11
313.15 K, x1 = 0.5997	1026.75 ± 0.89	4.28 ± 0.082
313.15 K, x1 = 0.7	1023.48 ± 0.89	3.308 ± 0.064
313.15 K, x1 = 0.8	1019.84 ± 0.88	2.57 ± 0.05
313.15 K, x1 = 0.8997	1016.22 ± 0.87	2.056 ± 0.04
313.15 K, x1 = 1	1011.9 ± 0.86	1.658 ± 0.032
318.15 K, x1 = 0.1001	1035.8 ± 0.91	14 ± 0.27
318.15 K, x1 = 0.2001	1033.74 ± 0.91	10.86 ± 0.21
318.15 K, x1 = 0.3	1031.16 ± 0.9	8.236 ± 0.16
318.15 K, x1 = 0.3998	1028.33 ± 0.9	6.232 ± 0.12
318.15 K, x1 = 0.4996	1025.39 ± 0.89	4.805 ± 0.092
318.15 K, x1 = 0.5997	1022.05 ± 0.88	3.691 ± 0.071
318.15 K, x1 = 0.7	1018.55 ± 0.88	2.883 ± 0.056
318.15 K, x1 = 0.8	1014.69 ± 0.87	2.263 ± 0.044
318.15 K, x1 = 0.8997	1010.87 ± 0.86	1.83 ± 0.036
318.15 K, x1 = 1	1006.36 ± 0.85	1.491 ± 0.029
323.15 K, x1 = 0.1001	1032.33 ± 0.9	11.78 ± 0.23
323.15 K, x1 = 0.2001	1030 ± 0.9	9.189 ± 0.18
323.15 K, x1 = 0.3	1027.16 ± 0.89	7.027 ± 0.13
323.15 K, x1 = 0.3998	1024.09 ± 0.89	5.361 ± 0.1
323.15 K, x1 = 0.4996	1020.89 ± 0.88	4.174 ± 0.08
323.15 K, x1 = 0.5997	1017.32 ± 0.87	3.235 ± 0.062
323.15 K, x1 = 0.7	1013.6 ± 0.86	2.551 ± 0.049
323.15 K, x1 = 0.8	1009.51 ± 0.86	2.023 ± 0.039
323.15 K, x1 = 0.8997	1005.5 ± 0.85	1.648 ± 0.032
323.15 K, x1 = 1	1000.79 ± 0.84	1.349 ± 0.026
